Test results from patent US8022057B2, “MAPK/ERK kinase inhibitors” (Takeda Pharmaceutical Company Limited, priority 2007, dated 2011).
pIC50: −log10 of the molar value.

The compounds below were run against T1, MEK1 (Homo sapiens, UniProt Q02750, DEL33-52/S218E/S222D) (assay: MEK1 inhibition, fluorescence polarization (IMAP) assay with ERK1 and FI-Erktide). Conditions: 1 nM MEK1, 25 nM ERK1, 400 μM ATP, 500 nM FI-Erktide, 22 min at room temperature; read-out: IC50 of Exemplified Compounds Against MEK1.
T1 construct: 6-histidine tag (pFastbac leader) (N); made in house; host or cells: Spodoptera frugiperda Sf9 (baculovirus) for MEK1; E. coli for GST-ERK1
T1 sequence (Q02750 with tags, fused parts or gaps DEL33-52/S218E/S222D): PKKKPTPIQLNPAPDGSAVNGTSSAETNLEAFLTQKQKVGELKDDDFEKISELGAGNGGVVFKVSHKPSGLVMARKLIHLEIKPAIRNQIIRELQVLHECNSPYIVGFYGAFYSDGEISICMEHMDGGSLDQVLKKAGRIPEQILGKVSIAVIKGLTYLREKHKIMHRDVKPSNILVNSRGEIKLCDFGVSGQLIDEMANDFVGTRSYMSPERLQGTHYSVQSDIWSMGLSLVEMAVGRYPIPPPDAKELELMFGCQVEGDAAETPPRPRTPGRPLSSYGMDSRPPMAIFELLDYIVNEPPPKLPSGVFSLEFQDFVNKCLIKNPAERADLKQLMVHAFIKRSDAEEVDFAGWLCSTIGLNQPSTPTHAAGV
Type: biochemical
Method: The deletion from residues 32-51, and the two mutations, S218E and S222D, may be obtained by quick change PCR.
Reaction product is determined quantitatively by fluorescent polarization using progressive IMAP beads from Molecular Devices.
The reaction mixture may then be incubated at room temperature for 22 min, and quenched and developed by addition of 20 μl of 1:200 dilution of progressive IMAP beads (Molecular Devices) in 80% buffer A, 20% buffer B and 0.003% Tween 20. Fluorescence polarization of the resulting reaction mixtures may be measured after a 1 hour incubation at room temperature.
IC50 values may be calculated by non-linear curve fitting of the compound concentrations and fluorescence polarization signal to the standard IC50 equation.

pIC50, ≥ 7.00:
O=C(NOCCO)c1c(Nc2ccc(I)cc2F)c(F)c(=O)n2c1CCCC2 [Example 7, 7-Fluoro-8-(2-fluoro-4-iodophenylamino)-N-(2-hydroxyethoxy)-6-oxo-2,3,4,6-tetrahydro-1H-quinolizine-9-carboxamide]
O=C(O)c1c(Nc2ccc(I)cc2F)c(F)c(=O)n2c1CCC2 [Example 1, 6-Fluoro-7-(2-fluoro-4-iodophenylamino)-5-oxo-1,2,3,5-tetrahydroindolizine-8-carboxylic acid]
O=C(NOC[C@H](O)CO)c1c(Nc2ccc(I)cc2F)c(F)c(=O)n2c1CCC2 [Example 2, (R)—N-(2,3-Dihydroxypropoxy)-6-fluoro-7-(2-fluoro-4-iodophenylamino)-5-oxo-1,2,3,5-tetrahydroindolizine-8-carboxamide]
O=C(NOC(CO)CO)c1c(Nc2ccc(I)cc2F)c(F)c(=O)n2c1CCC2 [Example 3, N-(1,3-Dihydroxypropan-2-yloxy)-6-fluoro-7-(2-fluoro-4-iodophenylamino)-5-oxo-1,2,3,5-tetrahydroindolizine-8-carboxamide]
O=C(NOCCO)c1c(Nc2ccc(I)cc2F)c(Cl)c(=O)n2c1CCC2 [Example 10, 6-Chloro-7-(2-fluoro-4-iodophenylamino)-N-(2-hydroxyethoxy)-5-oxo-1,2,3,5-tetrahydroindolizine-8-carboxamide]
Cc1c(Nc2ccc(I)cc2F)c(C(=O)NOCCO)c2n(c1=O)CCC2 [Example 8, 7-(2-Fluoro-4-iodophenylamino)-N-(2-hydroxyethoxy)-6-methyl-5-oxo-1,2,3,5-tetrahydroindolizine-8-carboxamide]
C#Cc1ccc(Nc2c(C(=O)NOCCO)c3n(c(=O)c2F)CCC3)c(F)c1 [Example 11, 7-(4-Ethynyl-2-fluorophenylamino)-6-fluoro-N-(2-hydroxyethoxy)-5-oxo-1,2,3,5-tetrahydroindolizine-8-carboxamide]
O=C(NOC[C@@H](O)CO)c1c(Nc2ccc(I)cc2F)c(F)c(=O)n2c1CCC2 [Example 5, (S)—N-(2,3-Dihydroxypropoxy)-6-fluoro-7-(2-fluoro-4-iodophenylamino)-5-oxo-1,2,3,5-tetrahydroindolizine-8-carboxamide]
O=C(NOCCO)c1c(Nc2ccc(I)cc2F)c(F)c(=O)n2c1CCC2 [Example 4, 6-Fluoro-7-(2-fluoro-4-iodophenylamino)-N-(2-hydroxyethoxy)-5-oxo-1,2,3,5-tetrahydroindolizine-8-carboxamide]
